Measurements from patent US20220110320A1, “ANTIMICROBIAL THIOURONIUM COPOLYMERS AND METHODS OF MAKING AND USING THE SAME” (priority 2020, published 2022).

Assay: 1H-NMR stability (hydrolysis) of VBT monomer
Format: physicochemical
Conditions: 3 weeks
Method: ^1H-NMR Studies. The VBT monomer (5 mg/mL) stability in D2O (with 0.5 μL DMSO as standard) and 0.5 M sodium acetate was analyzed using ^1H-NMR (Avance-600 MHz, Bruker). The VBT peak position and integration were monitored vs. time.
The monomer was recrystallized before use to remove any deprotected thiols. The PVBT polymer was prepared using radical polymerization in TFE and was characterized using NMR spectroscopy. Because the thiouronium group is usually employed as a precursor to thiols, via base-induced hydrolysis, the stability of the VBT monomer under neutral and mildly basic conditions was assessed by recording ^1H-NMR spectra of VBT in D20 and in 0.5 M NaAc (pH≈9.2) for 3 weeks. […] In fact, hydrolysis is typically carried out at much higher pH.

C=Cc1ccc(CSC(=N)N)cc1.Cl [VBT]
Hydrolysis of monomer by 1H-NMR (in 0.5 M NaAc (pH≈9.2)): no signs of hydrolysis | Hydrolysis of monomer by 1H-NMR (in D2O): no signs of hydrolysis
